Our source for the Activity values is ChEMBL document CHEMBL4330132, “5-Keto-3-cyano-2,4-diaminothiophenes as selective maternal embryonic leucine zipper kinase inhibitors” (Bioorg Med Chem Lett, 2019).

The target in assay [1] is Mitogen-activated protein kinase kinase kinase 6 (Homo sapiens) (UniProt O95382). In words: Binding affinity to wild-type human partial length ASK2 (M278 to R972 residues) expressed in mammalian expression system assessed as residual binding level at 1 uM by Kinomescan method relative to control.
Assay [2] has as its target Bone morphogenetic protein receptor type-1B (Homo sapiens) (UniProt O00238). In words: Binding affinity to wild-type human partial length BMPR1B (D178 to L502 residues) expressed in mammalian expression system assessed as residual binding level at 1 uM by Kinomescan method relative to control.
Assay [3] deals with Calcium/calmodulin-dependent protein kinase type 1 (Homo sapiens) (UniProt Q14012). Briefly: Binding affinity to wild-type human full length CAMK1 (M1 to L370 residues) expressed in bacterial expression system assessed as residual binding level at 1 uM by Kinomescan method relative to control.
Calcium/calmodulin-dependent protein kinase type 1 (Homo sapiens), sequence (Q14012 whole entry, looked up, the tested form may be a part, canonical isoform): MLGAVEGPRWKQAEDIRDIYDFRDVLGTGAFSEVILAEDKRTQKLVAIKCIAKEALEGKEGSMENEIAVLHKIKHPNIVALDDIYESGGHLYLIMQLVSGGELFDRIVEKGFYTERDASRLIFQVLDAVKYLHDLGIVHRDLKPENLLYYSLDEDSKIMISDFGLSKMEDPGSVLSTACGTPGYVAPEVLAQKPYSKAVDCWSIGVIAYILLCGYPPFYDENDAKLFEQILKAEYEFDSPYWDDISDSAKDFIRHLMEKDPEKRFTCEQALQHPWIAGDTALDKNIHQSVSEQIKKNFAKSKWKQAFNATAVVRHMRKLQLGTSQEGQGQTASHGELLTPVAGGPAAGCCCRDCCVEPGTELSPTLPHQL
Assay [4] deals with Casein kinase I isoform epsilon (Homo sapiens) (UniProt P49674). Briefly: Binding affinity to wild-type human full length CSNK1E (M1 to K416 residues) expressed in bacterial expression system assessed as residual binding level at 1 uM by Kinomescan method relative to control.
Assay [5] concerns the target Epithelial discoidin domain-containing receptor 1 (Homo sapiens) (UniProt Q08345). Briefly: Binding affinity to wild-type human partial length DDR1 (R565 to V876 residues) expressed in bacterial expression system assessed as residual binding level at 1 uM by Kinomescan method relative to control.
For assay [6], the target named is Mitogen-activated protein kinase 3 (Homo sapiens) (UniProt P27361). In words: Binding affinity to wild-type human full length ERK1 (M1 to P379 residues) expressed in bacterial expression system assessed as residual binding level at 1 uM by Kinomescan method relative to control.
Mitogen-activated protein kinase 3 (Homo sapiens), sequence (P27361 whole entry, the tested form may be a part): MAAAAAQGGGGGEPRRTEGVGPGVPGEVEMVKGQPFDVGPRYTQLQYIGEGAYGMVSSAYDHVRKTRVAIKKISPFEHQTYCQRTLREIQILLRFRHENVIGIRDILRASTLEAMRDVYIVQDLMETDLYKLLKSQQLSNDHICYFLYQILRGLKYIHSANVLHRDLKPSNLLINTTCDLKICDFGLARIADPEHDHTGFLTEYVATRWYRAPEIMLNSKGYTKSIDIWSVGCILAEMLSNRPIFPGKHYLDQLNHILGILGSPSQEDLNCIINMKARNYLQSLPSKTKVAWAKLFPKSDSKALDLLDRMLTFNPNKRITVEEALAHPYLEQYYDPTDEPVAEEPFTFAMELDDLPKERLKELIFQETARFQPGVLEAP
Assay [7] concerns the target Mitogen-activated protein kinase 4 (Homo sapiens) (UniProt P31152). Briefly: Binding affinity to wild-type human partial length ERK4 (M1 to L365 residues) expressed in bacterial expression system assessed as residual binding level at 1 uM by Kinomescan method relative to control.
In assay [8] the target is Mitogen-activated protein kinase 7 (Homo sapiens) (UniProt Q13164). In words: Binding affinity to wild-type human partial length ERK5 (M1 to A409 residues) expressed in bacterial expression system assessed as residual binding level at 1 uM by Kinomescan method relative to control.
The target in assay [9] is Receptor-type tyrosine-protein kinase FLT3 (Homo sapiens) (UniProt P36888). Briefly: Binding affinity to wild-type human partial length FLT3 (V592 to Y969 residues) expressed in bacterial expression system assessed as residual binding level at 1 uM by Kinomescan method relative to control.
Assay [10] addresses Tyrosine-protein kinase JAK2 (Homo sapiens) (UniProt O60674). In words: Binding affinity to wild-type human partial length JAK2 JH1 catalytic domain (A829 to G1132 residues) expressed in mammalian expression system assessed as residual binding level at 1 uM by Kinomescan method relative to control.
Assay [11] has as its target Tyrosine-protein kinase Lyn (Homo sapiens) (UniProt P07948). In words: Binding affinity to wild-type human partial length LYN (C219 to Q511 residues) expressed in bacterial expression system assessed as residual binding level at 1 uM by Kinomescan method relative to control.
Assay [12] deals with MAP kinase-activated protein kinase 2 (Homo sapiens) (UniProt P49137). In words: Binding affinity to wild-type human partial length MAPKAPK2 (V48 to D345 residues) expressed in bacterial expression system assessed as residual binding level at 1 uM by Kinomescan method relative to control.
In assay [13] the target is Maternal embryonic leucine zipper kinase (Homo sapiens, UniProt Q14680). Briefly: Binding affinity to wild-type human full length MELK (M1 to V651 residues) expressed in bacterial expression system assessed as residual binding level at 1 uM by Kinomescan method relative to control.
Assay [14] deals with Hepatocyte growth factor receptor (Homo sapiens) (UniProt P08581). In words: Binding affinity to wild-type human partial length MET (D1010 to S1367 residues) expressed in bacterial expression system assessed as residual binding level at 1 uM by Kinomescan method relative to control.
Hepatocyte growth factor receptor (Homo sapiens), sequence (P08581 whole entry, the tested form may be a part): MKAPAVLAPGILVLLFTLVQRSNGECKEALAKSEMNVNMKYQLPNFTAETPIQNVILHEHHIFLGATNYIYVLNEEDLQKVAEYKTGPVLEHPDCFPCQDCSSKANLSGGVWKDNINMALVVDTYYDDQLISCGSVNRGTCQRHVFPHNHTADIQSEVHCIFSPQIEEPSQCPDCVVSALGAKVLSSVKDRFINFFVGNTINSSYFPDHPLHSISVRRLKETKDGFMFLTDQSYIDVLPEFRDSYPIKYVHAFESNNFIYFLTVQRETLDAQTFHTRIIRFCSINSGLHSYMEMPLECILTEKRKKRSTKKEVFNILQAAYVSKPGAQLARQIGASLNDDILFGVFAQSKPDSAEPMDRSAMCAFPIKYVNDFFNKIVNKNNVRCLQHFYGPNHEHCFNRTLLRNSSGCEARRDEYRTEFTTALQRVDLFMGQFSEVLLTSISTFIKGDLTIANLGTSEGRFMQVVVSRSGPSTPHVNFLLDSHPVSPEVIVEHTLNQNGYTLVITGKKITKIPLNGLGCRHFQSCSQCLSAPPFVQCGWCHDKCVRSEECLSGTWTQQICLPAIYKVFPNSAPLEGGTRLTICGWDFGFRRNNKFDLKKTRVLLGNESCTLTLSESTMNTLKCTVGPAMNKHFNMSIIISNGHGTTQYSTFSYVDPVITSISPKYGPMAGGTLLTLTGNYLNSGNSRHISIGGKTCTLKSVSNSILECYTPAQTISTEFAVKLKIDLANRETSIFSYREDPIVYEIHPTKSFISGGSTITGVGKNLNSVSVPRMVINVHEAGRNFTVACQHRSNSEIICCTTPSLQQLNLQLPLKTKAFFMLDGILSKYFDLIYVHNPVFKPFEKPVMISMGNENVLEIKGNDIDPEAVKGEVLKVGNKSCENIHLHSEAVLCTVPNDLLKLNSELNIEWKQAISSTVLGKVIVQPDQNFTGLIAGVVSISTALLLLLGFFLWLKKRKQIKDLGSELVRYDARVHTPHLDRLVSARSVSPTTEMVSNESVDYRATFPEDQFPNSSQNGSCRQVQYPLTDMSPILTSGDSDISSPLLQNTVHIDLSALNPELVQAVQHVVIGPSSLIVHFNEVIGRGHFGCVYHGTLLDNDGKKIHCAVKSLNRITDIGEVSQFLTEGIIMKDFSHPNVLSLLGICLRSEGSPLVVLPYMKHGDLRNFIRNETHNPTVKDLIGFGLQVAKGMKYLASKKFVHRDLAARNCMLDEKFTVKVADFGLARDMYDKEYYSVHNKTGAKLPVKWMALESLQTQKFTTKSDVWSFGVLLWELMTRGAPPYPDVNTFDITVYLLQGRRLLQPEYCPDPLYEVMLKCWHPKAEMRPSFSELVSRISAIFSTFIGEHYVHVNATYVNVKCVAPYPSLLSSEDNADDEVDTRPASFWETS
Assay [15] has as its target Myosin light chain kinase 2, skeletal/cardiac muscle (Homo sapiens) (UniProt Q9H1R3). Briefly: Binding affinity to wild-type human partial length MYLK2 (D258 to K570 residues) expressed in bacterial expression system assessed as residual binding level at 1 uM by Kinomescan method relative to control.
In assay [16] the target is Serine/threonine-protein kinase Nek6 (Homo sapiens) (UniProt Q9HC98). In words: Binding affinity to wild-type human full length NEK6 (M8 to T313 residues) expressed in bacterial expression system assessed as residual binding level at 1 uM by Kinomescan method relative to control.
Assay [17] concerns the target Platelet-derived growth factor receptor beta (Homo sapiens) (UniProt P09619). In words: Binding affinity to wild-type human partial length PDGFRB (V582 to Y1009 residues) expressed in bacterial expression system assessed as residual binding level at 1 uM by Kinomescan method relative to control.
The test system of assay [18] is Phosphatidylinositol 4,5-bisphosphate 3-kinase catalytic subunit alpha isoform (Homo sapiens), P42336 [E545A]. Briefly: Binding affinity to human partial length PIK3CA E545A mutant (R108 to N1068 residues) expressed in mammalian expression system assessed as residual binding level at 1 uM by Kinomescan method relative to control.
For assay [19], the target named is Serine/threonine-protein kinase SIK3 (Homo sapiens) (UniProt Q9Y2K2). Briefly: Binding affinity to wild-type human partial length QSK (A90 to L395 residues) expressed in mammalian expression system assessed as residual binding level at 1 uM by Kinomescan method relative to control.
Serine/threonine-protein kinase SIK3 (Homo sapiens), sequence (Q9Y2K2 whole entry, looked up, the tested form may be a part): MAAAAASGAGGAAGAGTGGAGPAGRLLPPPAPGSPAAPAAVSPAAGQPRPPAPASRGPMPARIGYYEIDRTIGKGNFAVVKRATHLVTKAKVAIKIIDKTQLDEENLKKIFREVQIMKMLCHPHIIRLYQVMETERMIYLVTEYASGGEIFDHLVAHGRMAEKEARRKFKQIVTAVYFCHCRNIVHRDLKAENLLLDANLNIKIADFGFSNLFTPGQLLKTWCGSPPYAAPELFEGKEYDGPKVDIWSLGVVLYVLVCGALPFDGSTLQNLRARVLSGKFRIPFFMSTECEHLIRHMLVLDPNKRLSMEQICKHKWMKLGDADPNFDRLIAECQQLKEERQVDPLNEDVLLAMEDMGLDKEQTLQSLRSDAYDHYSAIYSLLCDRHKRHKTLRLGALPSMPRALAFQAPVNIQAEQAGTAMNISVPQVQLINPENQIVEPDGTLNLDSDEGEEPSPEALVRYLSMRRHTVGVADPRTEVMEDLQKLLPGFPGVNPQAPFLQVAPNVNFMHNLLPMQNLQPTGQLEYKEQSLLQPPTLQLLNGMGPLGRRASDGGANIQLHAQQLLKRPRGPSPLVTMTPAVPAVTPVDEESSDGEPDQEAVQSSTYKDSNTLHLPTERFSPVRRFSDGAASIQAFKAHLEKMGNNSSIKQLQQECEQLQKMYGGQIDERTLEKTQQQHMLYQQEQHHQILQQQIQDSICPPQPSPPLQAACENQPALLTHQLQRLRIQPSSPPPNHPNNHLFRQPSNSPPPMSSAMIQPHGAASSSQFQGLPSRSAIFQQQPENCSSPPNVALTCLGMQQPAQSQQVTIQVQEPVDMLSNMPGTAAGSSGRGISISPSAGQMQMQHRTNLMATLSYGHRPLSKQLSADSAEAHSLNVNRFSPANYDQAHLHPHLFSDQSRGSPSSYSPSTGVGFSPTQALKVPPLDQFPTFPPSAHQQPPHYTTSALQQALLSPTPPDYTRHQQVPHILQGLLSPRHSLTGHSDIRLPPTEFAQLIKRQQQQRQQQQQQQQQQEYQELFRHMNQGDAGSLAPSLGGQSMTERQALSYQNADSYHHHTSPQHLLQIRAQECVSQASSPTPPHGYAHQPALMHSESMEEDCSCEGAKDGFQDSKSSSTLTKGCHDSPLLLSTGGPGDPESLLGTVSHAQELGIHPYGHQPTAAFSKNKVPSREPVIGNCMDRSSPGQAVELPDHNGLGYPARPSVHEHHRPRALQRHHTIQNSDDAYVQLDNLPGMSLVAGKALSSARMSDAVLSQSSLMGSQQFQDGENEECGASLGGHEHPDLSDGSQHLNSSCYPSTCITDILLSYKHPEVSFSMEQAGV
Assay [20] deals with Ribosomal protein S6 kinase alpha-1 (Homo sapiens) (UniProt Q15418). Briefly: Binding affinity to wild-type human partial length N-terminal RSK1 Kinase domain 1 (M1 to E388 residues) expressed in bacterial expression system assessed as residual binding level at 1 uM by Kinomescan method relative to control.
For assay [21], the target named is Ribosomal protein S6 kinase beta-1 (Homo sapiens) (UniProt P23443). Briefly: Binding affinity to wild-type human partial length S6K1 (M1 to S421 residues) expressed in mammalian expression system assessed as residual binding level at 1 uM by Kinomescan method relative to control.
Ribosomal protein S6 kinase beta-1 (Homo sapiens), sequence (P23443 whole entry, looked up, the tested form may be a part): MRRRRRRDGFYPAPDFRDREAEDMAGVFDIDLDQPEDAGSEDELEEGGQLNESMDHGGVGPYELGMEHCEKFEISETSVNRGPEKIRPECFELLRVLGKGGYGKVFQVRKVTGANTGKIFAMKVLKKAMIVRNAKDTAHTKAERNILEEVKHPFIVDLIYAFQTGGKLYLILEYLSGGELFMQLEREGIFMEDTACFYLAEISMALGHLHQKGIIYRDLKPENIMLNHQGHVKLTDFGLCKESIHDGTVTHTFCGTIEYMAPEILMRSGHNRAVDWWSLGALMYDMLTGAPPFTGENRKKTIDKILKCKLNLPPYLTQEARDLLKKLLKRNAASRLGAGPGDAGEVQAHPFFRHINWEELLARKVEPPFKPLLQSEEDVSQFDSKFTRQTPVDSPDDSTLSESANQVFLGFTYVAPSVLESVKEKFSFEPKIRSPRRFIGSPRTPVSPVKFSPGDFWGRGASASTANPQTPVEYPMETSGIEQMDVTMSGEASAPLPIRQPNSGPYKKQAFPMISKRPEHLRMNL
Assay [22] concerns the target Serine/threonine-protein kinase 33 (Homo sapiens) (UniProt Q9BYT3). In words: Binding affinity to wild-type human full length STK33 (M1 to L514 residues) expressed in bacterial expression system assessed as residual binding level at 1 uM by Kinomescan method relative to control.
The target in assay [23] is Serine/threonine-protein kinase TAO1 (Homo sapiens) (UniProt Q7L7X3). Briefly: Binding affinity to wild-type human partial length TAOK1 (M1 to A320 residues) expressed in mammalian expression system assessed as residual binding level at 1 uM by Kinomescan method relative to control.
For assay [24], the target named is Dual specificity testis-specific protein kinase 1 (Homo sapiens) (UniProt Q15569). In words: Binding affinity to wild-type human full length TESK1 (R37 to S626 residues) expressed in bacterial expression system assessed as residual binding level at 1 uM by Kinomescan method relative to control.

Each structure is given as a SMILES string.

Epithelial discoidin domain-containing receptor 1 (Homo sapiens), sequence (Q08345 whole entry, the tested form may be a part): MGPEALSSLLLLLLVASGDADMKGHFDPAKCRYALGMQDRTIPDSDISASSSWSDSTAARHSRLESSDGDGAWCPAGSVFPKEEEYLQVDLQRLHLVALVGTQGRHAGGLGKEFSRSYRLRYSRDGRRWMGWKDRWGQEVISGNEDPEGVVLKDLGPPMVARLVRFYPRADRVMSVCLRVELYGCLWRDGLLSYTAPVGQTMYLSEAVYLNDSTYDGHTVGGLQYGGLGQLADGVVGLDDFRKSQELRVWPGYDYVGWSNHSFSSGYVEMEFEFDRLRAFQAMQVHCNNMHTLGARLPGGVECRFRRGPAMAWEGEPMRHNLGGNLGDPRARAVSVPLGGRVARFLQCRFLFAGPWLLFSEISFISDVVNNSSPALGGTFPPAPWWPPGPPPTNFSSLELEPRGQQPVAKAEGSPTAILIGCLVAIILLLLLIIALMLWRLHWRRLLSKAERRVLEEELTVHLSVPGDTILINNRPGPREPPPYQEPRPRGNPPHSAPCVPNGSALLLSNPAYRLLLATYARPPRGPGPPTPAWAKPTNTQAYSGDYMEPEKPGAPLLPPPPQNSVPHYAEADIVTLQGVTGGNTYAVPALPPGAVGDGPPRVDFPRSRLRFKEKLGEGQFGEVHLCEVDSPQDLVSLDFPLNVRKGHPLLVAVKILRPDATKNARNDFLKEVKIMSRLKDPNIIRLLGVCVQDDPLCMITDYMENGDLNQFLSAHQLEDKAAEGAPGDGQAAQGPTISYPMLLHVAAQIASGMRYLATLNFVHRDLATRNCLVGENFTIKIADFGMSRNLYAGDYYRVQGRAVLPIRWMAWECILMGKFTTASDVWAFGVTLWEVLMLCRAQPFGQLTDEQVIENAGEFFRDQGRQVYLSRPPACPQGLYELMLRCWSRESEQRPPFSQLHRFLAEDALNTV

As for `CC(C)Nc1sc(C(=O)c2ccc(Cl)s2)c(N)c1C#N`, the Activity in assay [1] was determined as 100%; in [2], 94%; in assay [3], 91%; in assay [4], 61%; in assay [5], 63%; in assay [6], 95%. Besides, the Activity worked out at 89% in assay [7]; 100% in assay [8]; 93% in assay [9]; 100% in assay [10]; 80% in assay [11]; 83% in [12]. The Activity was found to be 14% in [13]; 68% in assay [14]; 81% in assay [15]; 100% in assay [16]; 54% in [17]; 100% in assay [18]. In addition, the Activity came out at 100% in assay [19]; 84% in [20]; 93% in assay [21]; 57% in [22]; 100% in assay [23]; 94% in [24].
